Assay results taken from patent US20220323406A1, “METHODS AND COMPOSITIONS FOR DIFFERENTIATING STEM CELLS” (Massachusetts Institute of Technology, priority 2019, published 2022).

Tests used:
[1] = tested on: ENR+CD organoids (ISC to Paneth cell differentiation); assay: Primary screen: CCh-stimulated lysozyme secretion LYZ.S, 2.5-D 384-well ENR+CD organoid differentiation; type: cell-based, mouse; conditions: primary screen
Description: (§1) High-throughput screening.

[2] = tested on: ENR+CD organoids (ISC to Paneth cell differentiation); assay: Primary screen: basal (non-stimulated) lysozyme secretion LYZ.NS, 2.5-D 384-well ENR+CD organoid differentiation; type: cell-based, mouse; conditions: primary screen; for Z.LYZ.NS: standard z score
Description: as §1

ENR+CD organoids = assay: Primary screen: ATP (CellTiter-Glo 3D, CTG) cell number/viability, 2.5-D 384-well ENR+CD organoids; conditions: primary screen; for Z.CTG: standard z score;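 for all read-outs here: compounds given at plating and again on day 3 over a 6-day differentiation from ENR+CV stem-cell-enriched precursors, ATP measured on day 6, plate median as control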
[3] = dose 0.08 uM, FC relative to plate median
[4] = dose 0.40 uM, FC relative to plate median
[5] = dose 2.00 uM, FC relative to plate median
[6] = dose 10.00 uM, FC relative to plate median

CCN(CC)CC(=O)Nc1c(C)cccc1C [Lidocaine]
Dose.FC.LYZ.S (log2 fold change) ([1]; dose 0.08 uM): 0.083 | Dose.FC.LYZ.S (log2 fold change) ([1]; dose 0.40 uM): 0.026 | Dose.FC.LYZ.S (log2 fold change) ([1]; dose 2.00 uM): −0.038 | Dose.FC.LYZ.S (log2 fold change) ([1]; dose 10.00 uM): −0.009 | Dose.FC.LYZ.NS (log2 fold change) ([2]; dose 0.08 uM): 0.106 | Z.LYZ.NS (standard z score) ([2]; dose 0.08 uM): 0.927 | Dose.FC.LYZ.NS (log2 fold change) ([2]; dose 0.40 uM): 0.017 | Z.LYZ.NS (standard z score) ([2]; dose 0.40 uM): 0.144 | Dose.FC.LYZ.NS (log2 fold change) ([2]; dose 2.00 uM): 0.001 | Z.LYZ.NS (standard z score) ([2]; dose 2.00 uM): 0.008 | Dose.FC.LYZ.NS (log2 fold change) ([2]; dose 10.00 uM): 0.019 | Z.LYZ.NS (standard z score) ([2]; dose 10.00 uM): 0.167 | Dose.FC.CTG (log2 fold change) (ENR+CD organoids; dose 0.08 uM): −0.079 | Dose.FC.CTG (log2 fold change) (ENR+CD organoids; dose 0.40 uM): −0.153 | Dose.FC.CTG (log2 fold change) (ENR+CD organoids; dose 2.00 uM): 0.034 | Dose.FC.CTG (log2 fold change) (ENR+CD organoids; dose 10.00 uM): −0.256

Cc1cc(Nc2ncc(Cl)c(Nc3ccccc3S(=O)(=O)C(C)C)n2)c(OC(C)C)cc1C1CCNCC1 [LDK378]
Dose.FC.LYZ.S (log2 fold change) ([1]; dose 0.08 uM): 0.118 | Dose.FC.LYZ.S (log2 fold change) ([1]; dose 0.40 uM): −0.047 | Dose.FC.LYZ.S (log2 fold change) ([1]; dose 2.00 uM): −0.281 | Dose.FC.LYZ.S (log2 fold change) ([1]; dose 10.00 uM): −0.487 | Dose.FC.LYZ.NS (log2 fold change) ([2]; dose 0.08 uM): 0.061 | Z.LYZ.NS (standard z score) ([2]; dose 0.08 uM): 0.534 | Dose.FC.LYZ.NS (log2 fold change) ([2]; dose 0.40 uM): −0.053 | Z.LYZ.NS (standard z score) ([2]; dose 0.40 uM): −0.465 | Dose.FC.LYZ.NS (log2 fold change) ([2]; dose 2.00 uM): −0.195 | Z.LYZ.NS (standard z score) ([2]; dose 2.00 uM): −1.702 | Dose.FC.LYZ.NS (log2 fold change) ([2]; dose 10.00 uM): −0.338 | Z.LYZ.NS (standard z score) ([2]; dose 10.00 uM): −2.939 | Dose.FC.CTG (log2 fold change) (ENR+CD organoids; dose 0.08 uM): 0.135 | Dose.FC.CTG (log2 fold change) (ENR+CD organoids; dose 0.40 uM): 0.004 | Dose.FC.CTG (log2 fold change) (ENR+CD organoids; dose 2.00 uM): −0.364 | Dose.FC.CTG (log2 fold change) (ENR+CD organoids; dose 10.00 uM): −1.292

S3I-201
Dose.FC.LYZ.S [1, 3]: 0.033 log2 fold change | Dose.FC.LYZ.S [1, 4]: 0.157 log2 fold change | Dose.FC.LYZ.S [1, 5]: −0.004 log2 fold change | Dose.FC.LYZ.S [1, 6]: −0.052 log2 fold change | Dose.FC.LYZ.NS [2, 3]: 0.051 log2 fold change | Z.LYZ.NS ([2]; dose 0.08 uM): 0.445 | Dose.FC.LYZ.NS [2, 4]: 0.061 log2 fold change | Z.LYZ.NS ([2]; dose 0.40 uM): 0.527 | Dose.FC.LYZ.NS [2, 5]: 0.024 log2 fold change | Z.LYZ.NS ([2]; dose 2.00 uM): 0.212 | Dose.FC.LYZ.NS [2, 6]: −0.016 log2 fold change | Z.LYZ.NS ([2]; dose 10.00 uM): −0.143 | Dose.FC.CTG (ENR+CD organoids; [3]): 0.321 log2 fold change | Z.CTG (ENR+CD organoids; dose 0.08 uM): 0.766 | Dose.FC.CTG (ENR+CD organoids; [4]): 0.160 log2 fold change | Z.CTG (ENR+CD organoids; dose 0.40 uM): 0.382 | Dose.FC.CTG (ENR+CD organoids; [5]): 0.079 log2 fold change | Z.CTG (ENR+CD organoids; dose 2.00 uM): 0.188 | Dose.FC.CTG (ENR+CD organoids; [6]): −0.140 log2 fold change | Z.CTG (ENR+CD organoids; dose 10.00 uM): −0.334

CC(C)c1ccc(NC(=O)Cn2cnc3c2c(=O)n(C)c(=O)n3C)cc1 [HC-030031]
Dose.FC.LYZ.S (log2 fold change) ([1]; dose 0.08 uM): 0.090 | Dose.FC.LYZ.S (log2 fold change) ([1]; dose 0.40 uM): 0.097 | Dose.FC.LYZ.S (log2 fold change) ([1]; dose 2.00 uM): −0.035 | Dose.FC.LYZ.S (log2 fold change) ([1]; dose 10.00 uM): 0.077 | Dose.FC.LYZ.NS (log2 fold change) ([2]; dose 0.08 uM): 0.063 | Z.LYZ.NS (standard z score) ([2]; dose 0.08 uM): 0.547 | Dose.FC.LYZ.NS (log2 fold change) ([2]; dose 0.40 uM): 0.033 | Z.LYZ.NS (standard z score) ([2]; dose 0.40 uM): 0.291 | Dose.FC.LYZ.NS (log2 fold change) ([2]; dose 2.00 uM): −0.007 | Z.LYZ.NS (standard z score) ([2]; dose 2.00 uM): −0.057 | Dose.FC.LYZ.NS (log2 fold change) ([2]; dose 10.00 uM): −0.047 | Z.LYZ.NS (standard z score) ([2]; dose 10.00 uM): −0.411 | Dose.FC.CTG (log2 fold change) (ENR+CD organoids; dose 0.08 uM): 0.082 | Z.CTG (standard z score) (ENR+CD organoids; dose 0.08 uM): 0.195 | Dose.FC.CTG (log2 fold change) (ENR+CD organoids; dose 0.40 uM): 0.191 | Z.CTG (standard z score) (ENR+CD organoids; dose 0.40 uM): 0.457 | Dose.FC.CTG (log2 fold change) (ENR+CD organoids; dose 2.00 uM): −0.008 | Z.CTG (standard z score) (ENR+CD organoids; dose 2.00 uM): −0.019 | Dose.FC.CTG (log2 fold change) (ENR+CD organoids; dose 10.00 uM): −0.241 | Z.CTG (standard z score) (ENR+CD organoids; dose 10.00 uM): −0.575

COc1ccccc1Oc1c(NS(=O)(=O)c2ccc(C(C)(C)C)cc2)nc(-c2ncccn2)nc1OCCO [Bosentan Hydrate]
Dose.FC.LYZ.S ([1]; dose 0.08 uM): 0.145 log2 fold change | Dose.FC.LYZ.S ([1]; dose 0.40 uM): 0.100 log2 fold change | Dose.FC.LYZ.S ([1]; dose 2.00 uM): 0.014 log2 fold change | Dose.FC.LYZ.S ([1]; dose 10.00 uM): 0.045 log2 fold change | Dose.FC.LYZ.NS ([2]; dose 0.08 uM): 0.090 log2 fold change | Z.LYZ.NS (standard z score) ([2]; dose 0.08 uM): 0.785 | Dose.FC.LYZ.NS ([2]; dose 0.40 uM): 0.068 log2 fold change | Z.LYZ.NS (standard z score) ([2]; dose 0.40 uM): 0.589 | Dose.FC.LYZ.NS ([2]; dose 2.00 uM): 0.039 log2 fold change | Z.LYZ.NS (standard z score) ([2]; dose 2.00 uM): 0.337 | Dose.FC.LYZ.NS ([2]; dose 10.00 uM): 0.058 log2 fold change | Z.LYZ.NS (standard z score) ([2]; dose 10.00 uM): 0.508 | Dose.FC.CTG (ENR+CD organoids; dose 0.08 uM): 0.204 log2 fold change | Dose.FC.CTG (ENR+CD organoids; dose 0.40 uM): 0.207 log2 fold change | Dose.FC.CTG (ENR+CD organoids; dose 2.00 uM): 0.121 log2 fold change | Dose.FC.CTG (ENR+CD organoids; dose 10.00 uM): 0.085 log2 fold change
